Several values for one entry are separate records, joined by “and”; a condition that tells them apart may be missing. Equal entries are not always repeated. Where two headings read alike, the source gives them in different places. Marks after values point to notes of the source that are not given here.
How the values were obtained:
MRSA 63718 = test: synergy with antibiotics (FIC index, checkerboard); format: cell-based, Staphylococcus aureus; settings: in the combination of that line
Excerpt: (§1) Representatives from various classes were chosen in order to study the potential difference in synergistic activity according to the diverse mechanisms of action and resistance of these drugs. The method of minimal fractional inhibitory concentration (FIC) index (FICI) in a microtitration plate was used. FICI ≤ 0.5 means synergy; 0.5 < FICI < 1 means additivity; 1 ≤ FICI < 4 means indifference; and FICI ≥ 4 means antagonism.
(§2) For synergy effect study, a method of fractional inhibitory concentration was used. […] Raw H was used for the evaluation of MIC(A); column 12 was used for evaluation of MIC(B). The plate was inoculated by the bacterial suspension to reach final concentration of 5 × 10^5 CFU/mL in the wells. The fractional inhibitory concentration (FIC) index was calculated using the concentrations in the first nonturbid (clear) well found in each row and column along the turbidity/nonturbidity interface. To interpret the combined effect, the lowest FICI was used. A ΣFIC ≤ 0.5 means synergy; 0.5 < ΣFIC < 1 means additivity; 1 ≤ ΣFIC < 4 means indifference; and ΣFIC ≥ 4 means antagonism. The tests were made in duplicate, and the results were averaged.

VRE 368 = test: time-kill study; format: cell-based, Enterococcus faecalis; settings: VRE2
Excerpt: (§3) Time-kill studies are used to evaluate the dynamics of antibacterial activity. As mentioned above, a pre-test to determine minimum bactericidal concentration (MBC) by sub-cultivation of aliquots on agar was made (see Section 3.4). […] Time-kill studies were made with methicillin-susceptible S. aureus ATCC 29213 and methicillin-resistant MRSA 63718, vancomycin-susceptible E. faecalis ATCC 29212, and all three VRE isolates. Vancomycin was used as a control (Table 6).
(§4) The method of time-kill curves was used to study the bactericidal effect of selected compounds. […] The experiment was performed with S. aureus ATCC 29213, MRSA 63718, E. faecalis ATCC 29212, and all VRE isolates. […] The tubes were inoculated by bacterial inoculum in the exponential phase of growth to get a final concentration of 7.5 × 10^6 CFU/mL. The tubes were incubated statically at 37 °C. Immediately after inoculation and after 4, 6, 8, and 24 h, 100 µL of the sample was serially diluted (1:10) in PBS. Then, 2 × 20 µL from each dilution were put onto a Mueller–Hinton agar plate and cultivated at 37 °C for 24 h. After incubation, CFUs of dilutions containing 5–50 colonies were counted. Results were expressed as a decrease of log10(CFU) in each time compared to the starting inoculum. Bactericidal effect is defined as a −3log decrease of CFU/mL compared to the growth control in time 0. The test was made in duplicate on two separate occasions, and the results were averaged. The growth curves with error bars are shown in Figures S1 and S2 in Supplementary Materials.

VRE 342B = test: time-kill study; format: cell-based, Enterococcus faecalis; settings: VRE1
Excerpt: as §3, §4

E. faecalis ATCC 29212 = test: time-kill study; format: cell-based, Enterococcus faecalis; settings: EF
Excerpt: as §3, §4

VRE 725B [1] = test: time-kill study; format: cell-based, Enterococcus faecalis; settings: VRE3
Excerpt: as §3, §4

VRE 725B [2] = test: synergy with antibiotics (FIC index, checkerboard); format: cell-based, Enterococcus faecalis; settings: combination with VAN, data not shown
Excerpt: as §1
The used VRE strains were isolated from American crows by Oravcova et al., and their genetic profiles were characterized. All the VRE strains were carrying genes vanA, tetM, and ermB. Strains VRE 368 and VRE 725B carried gene aac, which provided acquired aminoglycoside resistance.
as §2

S. aureus ATCC 29213 = test: MIC, broth microdilution; format: cell-based, Staphylococcus aureus; settings: Staphylococcus aureus, ATCC29213
In short: (§5)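 Each strain, standardized to 0.5 McFarland and brought to a final 5 × 10^5 CFU/mL, was exposed to compound dilutions in genus-appropriate medium (cation-adjusted MH for S. aureus, BHI for enterococci). It was then held overnight under air at 37 °C before growth inhibition was scored.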

[3] = tested on: methicillin-resistant S. aureus SA 3202; test: MIC, broth microdilution; format: cell-based, Staphylococcus aureus; settings: Staphylococcus aureus; MRSA3 = SA 3202; read-out: MICs
In short: as §5

Q: For `CCCCCCOc1cccc(NC(=O)OC(CN(CCC)CCC)CN2CCCC2)c1.Cl.Cl` (centres unmarked) [1g, 1-[3-(dipropylammonio)-2-({[3-(hexyloxy)phenyl]carbamoyl}oxy)propyl]pyrrolidinium dichloride], which “concentrations of the tested compound/clinically used antibiotic providing additivity or synergy” value (MRSA 63718) is on record?
A: Its value is 2 µg/mL.

Q: And the “Log10 Difference in CFU/mL from Inoculum” value (VRE 368; 1 × MIC, 4 h)?
A: Its value is −2.00 log10 CFU/mL.

Q: What about the “Log10 Difference in CFU/mL from Inoculum” value (VRE 368; 1 × MIC, 6 h) of the same compound?
A: The value was 0.29 log10 CFU/mL.

Q: And the “Log10 Difference in CFU/mL from Inoculum” value (VRE 368; 1 × MIC, 8 h)?
A: Its value is 0.25 log10 CFU/mL.

Q: And the “Log10 Difference in CFU/mL from Inoculum” value (VRE 368; 1 × MIC, 24 h)?
A: The value was −0.16 log10 CFU/mL.

Q: And the “Log10 Difference in CFU/mL from Inoculum” value (VRE 368; 2 × MIC, 4 h)?
A: The value was −2.34 log10 CFU/mL.

Q: And the “Log10 Difference in CFU/mL from Inoculum” value (VRE 368; 2 × MIC, 6 h)?
A: The value was −1.97 log10 CFU/mL.

Q: What about the “Log10 Difference in CFU/mL from Inoculum” value (VRE 368; 2 × MIC, 8 h) of the same compound?
A: Its value is −1.01 log10 CFU/mL.

Q: And the “Log10 Difference in CFU/mL from Inoculum” value (VRE 368; 2 × MIC, 24 h)?
A: Its value is 0.32 log10 CFU/mL.

Q: And the “Log10 Difference in CFU/mL from Inoculum” value (VRE 368; 4 × MIC, 4 h)?
A: Its value is −2.72 * log10 CFU/mL.

Q: And the “Log10 Difference in CFU/mL from Inoculum” value (VRE 368; 4 × MIC, 6 h)?
A: The value was −2.71 * log10 CFU/mL.

Q: What about the “Log10 Difference in CFU/mL from Inoculum” value (VRE 368; 4 × MIC, 8 h) of the same compound?
A: Its value is −2.45 log10 CFU/mL.

Q: What about the “Log10 Difference in CFU/mL from Inoculum” value (VRE 368; 4 × MIC, 24 h) of the same compound?
A: Its value is 0.97 log10 CFU/mL.

Q: And the “Log10 Difference in CFU/mL from Inoculum” value (VRE 342B; 1 × MIC, 4 h)?
A: The value was −0.14 log10 CFU/mL.

Q: What about the “Log10 Difference in CFU/mL from Inoculum” value (VRE 342B; 1 × MIC, 6 h) of the same compound?
A: Its value is 0.97 log10 CFU/mL.

Q: And the “Log10 Difference in CFU/mL from Inoculum” value (VRE 342B; 1 × MIC, 8 h)?
A: Its value is 1.01 log10 CFU/mL.

Q: What about the “Log10 Difference in CFU/mL from Inoculum” value (VRE 342B; 1 × MIC, 24 h) of the same compound?
A: Its value is 1.11 log10 CFU/mL.

Q: What about the “Log10 Difference in CFU/mL from Inoculum” value (VRE 342B; 2 × MIC, 4 h) of the same compound?
A: Its value is −0.36 log10 CFU/mL.

Q: What about the “Log10 Difference in CFU/mL from Inoculum” value (VRE 342B; 2 × MIC, 6 h) of the same compound?
A: Its value is −1.89 log10 CFU/mL.

Q: What about the “Log10 Difference in CFU/mL from Inoculum” value (VRE 342B; 2 × MIC, 8 h) of the same compound?
A: The value was −0.64 log10 CFU/mL.

Q: And the “Log10 Difference in CFU/mL from Inoculum” value (VRE 342B; 2 × MIC, 24 h)?
A: The value was 1.51 log10 CFU/mL.

Q: What about the “Log10 Difference in CFU/mL from Inoculum” value (VRE 342B; 4 × MIC, 4 h) of the same compound?
A: The value was −0.92 log10 CFU/mL.

Q: What about the “Log10 Difference in CFU/mL from Inoculum” value (VRE 342B; 4 × MIC, 6 h) of the same compound?
A: Its value is −1.00 log10 CFU/mL.

Q: What about the “Log10 Difference in CFU/mL from Inoculum” value (VRE 342B; 4 × MIC, 8 h) of the same compound?
A: The value was −1.09 log10 CFU/mL.

Q: What about the “Log10 Difference in CFU/mL from Inoculum” value (VRE 342B; 4 × MIC, 24 h) of the same compound?
A: Its value is 0.77 log10 CFU/mL.

Q: What about the “Log10 Difference in CFU/mL from Inoculum” value (E. faecalis ATCC 29212; 1 × MIC, 4 h) of the same compound?
A: Its value is −1.63 log10 CFU/mL.

Q: And the “Log10 Difference in CFU/mL from Inoculum” value (E. faecalis ATCC 29212; 1 × MIC, 6 h)?
A: The value was −1.01 log10 CFU/mL.

Q: What about the “Log10 Difference in CFU/mL from Inoculum” value (E. faecalis ATCC 29212; 1 × MIC, 8 h) of the same compound?
A: The value was −0.61 log10 CFU/mL.

Q: What about the “Log10 Difference in CFU/mL from Inoculum” value (E. faecalis ATCC 29212; 1 × MIC, 24 h) of the same compound?
A: The value was 0.27 log10 CFU/mL.

Q: And the “Log10 Difference in CFU/mL from Inoculum” value (E. faecalis ATCC 29212; 2 × MIC, 4 h)?
A: Its value is −3.37 * log10 CFU/mL.

Q: What about the “Log10 Difference in CFU/mL from Inoculum” value (E. faecalis ATCC 29212; 2 × MIC, 6 h) of the same compound?
A: The value was −3.43 * log10 CFU/mL.

Q: What about the “Log10 Difference in CFU/mL from Inoculum” value (E. faecalis ATCC 29212; 2 × MIC, 8 h) of the same compound?
A: Its value is −2.68 log10 CFU/mL.

Q: And the “Log10 Difference in CFU/mL from Inoculum” value (E. faecalis ATCC 29212; 2 × MIC, 24 h)?
A: The value was 1.04 log10 CFU/mL.

Q: And the “Log10 Difference in CFU/mL from Inoculum” value (E. faecalis ATCC 29212; 4 × MIC, 4 h)?
A: Its value is −5.62 * log10 CFU/mL.

Q: And the “Log10 Difference in CFU/mL from Inoculum” value (E. faecalis ATCC 29212; 4 × MIC, 6 h)?
A: The value was −5.14 * log10 CFU/mL.

Q: And the “Log10 Difference in CFU/mL from Inoculum” value (E. faecalis ATCC 29212; 4 × MIC, 8 h)?
A: Its value is −5.92 * log10 CFU/mL.

Q: And the “Log10 Difference in CFU/mL from Inoculum” value (E. faecalis ATCC 29212; 4 × MIC, 24 h)?
A: Its value is −0.31 log10 CFU/mL.

Q: And the “Log10 Difference in CFU/mL from Inoculum” value (VRE 725B [1]; 1 × MIC, 4 h)?
A: Its value is −0.09 log10 CFU/mL.

Q: And the “Log10 Difference in CFU/mL from Inoculum” value (VRE 725B [1]; 1 × MIC, 6 h)?
A: The value was −0.29 log10 CFU/mL.

Q: What about the “Log10 Difference in CFU/mL from Inoculum” value (VRE 725B [1]; 1 × MIC, 8 h) of the same compound?
A: Its value is 0.19 log10 CFU/mL.

Q: And the “Log10 Difference in CFU/mL from Inoculum” value (VRE 725B [1]; 1 × MIC, 24 h)?
A: The value was 2.41 log10 CFU/mL.

Q: And the “Log10 Difference in CFU/mL from Inoculum” value (VRE 725B [1]; 2 × MIC, 4 h)?
A: The value was −0.75 log10 CFU/mL.

Q: What about the “Log10 Difference in CFU/mL from Inoculum” value (VRE 725B [1]; 2 × MIC, 6 h) of the same compound?
A: Its value is −0.74 log10 CFU/mL.

Q: What about the “Log10 Difference in CFU/mL from Inoculum” value (VRE 725B [1]; 2 × MIC, 8 h) of the same compound?
A: Its value is 0.56 log10 CFU/mL.

Q: What about the “Log10 Difference in CFU/mL from Inoculum” value (VRE 725B [1]; 2 × MIC, 24 h) of the same compound?
A: Its value is 0.43 log10 CFU/mL.

Q: And the “Log10 Difference in CFU/mL from Inoculum” value (VRE 725B [1]; 4 × MIC, 4 h)?
A: Its value is −1.85 log10 CFU/mL.

Q: And the “Log10 Difference in CFU/mL from Inoculum” value (VRE 725B [1]; 4 × MIC, 6 h)?
A: Its value is −1.85 log10 CFU/mL.

Q: And the “Log10 Difference in CFU/mL from Inoculum” value (VRE 725B [1]; 4 × MIC, 8 h)?
A: Its value is −2.15 log10 CFU/mL.

Q: And the “Log10 Difference in CFU/mL from Inoculum” value (VRE 725B [1]; 4 × MIC, 24 h)?
A: Its value is −2.27 log10 CFU/mL.

Q: And the “effect of the combination with VAN” value (VRE 725B [2])?
A: Its value is “indifferent effect”.

Q: And the MIC (S. aureus ATCC 29213; SA = S. aureus ATCC 29213, read-out: MICs)?
A: The MIC was 8 µg/mL and 15.4 µM.

Q: What about the MIC (S. aureus ATCC 29213; Table 7, planktonic cells of S. aureus ATCC 29213, read-out: MIC) of the same compound?
A: Its MIC is 8 µg/mL.

Q: What about the MIC [3] of the same compound?
A: The MIC was 8 µg/mL and 15.4 µM.

From PMC7168207, “Dibasic Derivatives of Phenylcarbamic Acid as Prospective Antibacterial Agents Interacting with Cytoplasmic Membrane” (Antibiotics, 2020)
